Measurements from the supplement of paper PMC10307832.

Tests used:
Assay in all cases: relative viability (nuclei count vs DMSO), 5 days (fraction); higher = more cells survive
17-AAG = compound: C=CCNC1=C2C[C@@H](C)C[C@H](OC)[C@H](O)[C@@H](C)/C=C(\C)[C@H](OC(N)=O)[C@@H](OC)/C=C\C=C(/C)C(=O)NC(=CC1=O)C2=O [17-AAG]
Procedure, shortened: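 After an overnight hold at 37 °C, lung cancer cell lines in 1536-well plates were pinned with five library-drug doses (not always all listed), each √10 from the next, on vehicle-anchored plates. The cells stayed 5 days without fresh medium, then a one-step fix, permeabilisation and Hoechst stain preceded 4× imaging and MetaXpress nuclear counts. A plate passed only with control CV under 25% and at least one doubling. Viability is the median, over plates, of treated-well nuclei relative to vehicle-well nuclei.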

17-AAG + Olaparib = compound: C=CCNC1=C2C[C@@H](C)C[C@H](OC)[C@H](O)[C@@H](C)/C=C(\C)[C@H](OC(N)=O)[C@@H](OC)/C=C\C=C(/C)C(=O)NC(=CC1=O)C2=O [17-AAG] + O=C(c1cc(Cc2n[nH]c(=O)c3ccccc23)ccc1F)N1CCN(C(=O)C2CC2)CC1 [Olaparib] (partner 8 µM)
Procedure, shortened: (§1)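 One day after seeding in 1536-well plates, lung cancer cell lines were dosed by pin tool. Dosing was either single-drug or a fixed anchor-drug dose plus five library-drug doses (not always all listed) in √10 steps. After 5 days, nuclei were stained in one fix-and-stain step and counted on 4× images, and relative viability is the nuclei count of treated wells over that of vehicle wells, given as the median of duplicate plates.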

17-AAG + Phenformin = compound: C=CCNC1=C2C[C@@H](C)C[C@H](OC)[C@H](O)[C@@H](C)/C=C(\C)[C@H](OC(N)=O)[C@@H](OC)/C=C\C=C(/C)C(=O)NC(=CC1=O)C2=O [17-AAG] + N=C(N)NC(=N)NCCc1ccccc1 [Phenformin] (partner 250 µM)
Procedure, shortened: as §1

17-AAG + Trametinib = compound: C=CCNC1=C2C[C@@H](C)C[C@H](OC)[C@H](O)[C@@H](C)/C=C(\C)[C@H](OC(N)=O)[C@@H](OC)/C=C\C=C(/C)C(=O)NC(=CC1=O)C2=O [17-AAG] + CC(=O)Nc1cccc(-n2c(=O)n(C3CC3)c(=O)c3c(Nc4ccc(I)cc4F)n(C)c(=O)c(C)c32)c1 [Trametinib] (partner 0.02 µM)
Procedure, shortened: as §1

Row | Cell Line | relative viability (17-AAG; 0.00128 µM) | relative viability (17-AAG; 0.004048 µM) | relative viability (17-AAG; 0.0128 µM) | relative viability (17-AAG; 0.04048 µM) | relative viability (17-AAG; 0.128 µM) | relative viability (17-AAG + Olaparib; first compound 0.00128 µM) | relative viability (17-AAG + Olaparib; first compound 0.004048 µM) | relative viability (17-AAG + Olaparib; first compound 0.0128 µM) | relative viability (17-AAG + Olaparib; first compound 0.04048 µM) | relative viability (17-AAG + Olaparib; first compound 0.128 µM) | relative viability (17-AAG + Phenformin; first compound 0.00128 µM) | relative viability (17-AAG + Phenformin; first compound 0.004048 µM) | relative viability (17-AAG + Phenformin; first compound 0.0128 µM) | relative viability (17-AAG + Phenformin; first compound 0.04048 µM) | relative viability (17-AAG + Phenformin; first compound 0.128 µM) | relative viability (17-AAG + Trametinib; first compound 0.00128 µM) | relative viability (17-AAG + Trametinib; first compound 0.004048 µM) | relative viability (17-AAG + Trametinib; first compound 0.0128 µM) | relative viability (17-AAG + Trametinib; first compound 0.04048 µM) | relative viability (17-AAG + Trametinib; first compound 0.128 µM)
1 | NCI-H358 | 0.889 | 0.532 | 0.119 | 0.115 | 0.103 | 0.606 | 0.522 | 0.0873 | 0.0667 | 0.0637 | 0.321 | 0.155 | 0.0612 | 0.0774 | 0.0534 | 0.128 | 0.0832 | 0.0659 | 0.0673 | 0.0679
2 | LC-2-ad | 0.943 | 0.974 | 0.793 | 0.27 | 0.19 | 0.751 | 0.728 | 0.643 | 0.475 | 0.225 | 0.476 | 0.523 | 0.273 | 0.258 | 0.227 | 0.974 | 0.954 | 0.875 | 0.408 | 0.223
3 | HCC-15 | 0.94 | 0.923 | 0.557 | 0.14 | 0.122 | 0.726 | 0.71 | 0.306 | 0.332 | 0.15 | 0.433 | 0.33 | 0.146 | 0.124 | 0.107 | 0.415 | 0.416 | 0.286 | 0.214 | 0.13
4 | NCI-H3122 | 0.99 | 0.867 | 0.29 | 0.155 | 0.134 | 0.598 | 0.61 | 0.538 | 0.288 | 0.124 | 0.396 | 0.329 | 0.129 | 0.118 | 0.117 | 0.23 | 0.283 | 0.173 | 0.177 | 0.106
5 | LXF-289 | 1.01 | 1 | 0.872 | 0.167 | 0.121 | 1.06 | 0.936 | 0.889 | 0.817 | 0.135 | 0.544 | 0.511 | 0.189 | 0.0865 | 0.0697 | 0.667 | 0.661 | 0.686 | 0.58 | 0.145
6 | CAL-12T | 0.947 | 1.02 | 0.948 | 0.625 | 0.24 | 0.754 | 0.697 | 0.725 | 0.371 | 0.211 | 0.56 | 0.498 | 0.563 | 0.447 | 0.15 | 0.394 | 0.352 | 0.319 | 0.308 | 0.146
7 | COR-L23 | 0.987 | 1.02 | 1.01 | 0.668 | 0.147 | 0.377 | 0.322 | 0.324 | 0.169 | 0.112 | 0.459 | 0.438 | 0.419 | 0.269 | 0.103 | 0.664 | 0.504 | 0.438 | 0.158 | 0.0809
8 | NCI-H1755 | 1.01 | 0.943 | 0.897 | 0.433 | 0.238 | 0.873 | 0.849 | 0.903 | 0.712 | 0.238 | 0.622 | 0.57 | 0.578 | 0.254 | 0.0941 | 0.808 | 0.716 | 0.705 | 0.741 | 0.23
9 | NCI-H1437 | 1.03 | 0.931 | 0.637 | 0.249 | 0.178 | 0.626 | 0.609 | 0.285 | 0.194 | 0.173 | 0.312 | 0.316 | 0.179 | 0.153 | 0.129 | 0.582 | 0.562 | 0.32 | 0.291 | 0.195
10 | NCI-H2085 | 0.994 | 0.95 | 0.99 | 0.919 | 0.76 | 0.869 | 0.76 | 0.78 | 0.748 | 0.674 | 0.688 | 0.734 | 0.68 | 0.595 | 0.406 | 0.608 | 0.607 | 0.604 | 0.594 | 0.314
11 | H3255 | 0.995 | 0.973 | 0.948 | 0.313 | 0.243 | 0.556 | 0.494 | 0.484 | 0.284 | 0.231 | 0.365 | 0.368 | 0.331 | 0.234 | 0.189 | 0.597 | 0.556 | 0.544 | 0.31 | 0.21
12 | NCI-H661 | 0.937 | 0.998 | 0.953 | 0.549 | 0.295 | 0.804 | 0.716 | 0.529 | 0.333 | 0.253 | 0.304 | 0.293 | 0.293 | 0.256 | 0.188 | 0.588 | 0.533 | 0.522 | 0.295 | 0.23
13 | LCLC-103H | 1.02 | 1 | 0.957 | 1.04 | 1.07 | 0.841 | 0.745 | 0.755 | 0.823 | 0.831 | 0.351 | 0.345 | 0.3 | 0.346 | 0.325 | 0.711 | 0.692 | 0.661 | 0.739 | 0.669
14 | LOU-NH91 | 0.928 | 0.819 | 0.571 | 0.435 | 0.354 | 0.894 | 0.759 | 0.546 | 0.395 | 0.386 | 0.592 | 0.513 | 0.383 | 0.376 | 0.307 | 0.795 | 0.747 | 0.584 | 0.434 | 0.387
15 | NCI-H1650 | 0.89 | 0.477 | 0.197 | 0.2 | 0.144 | 0.721 | 0.636 | 0.147 | 0.156 | 0.113 | 0.294 | 0.15 | 0.146 | 0.147 | 0.157 | 0.657 | 0.252 | 0.143 | 0.126 | 0.114
16 | NCI-H322M | 0.95 | 0.967 | 0.483 | 0.346 | 0.325 | 0.781 | 0.857 | 0.409 | 0.418 | 0.414 | 0.77 | 0.808 | 0.311 | 0.28 | 0.303 | 0.512 | 0.547 | 0.452 | 0.536 | 0.403
17 | RERF-LC-KJ | 1.03 | 1.05 | 0.669 | 0.284 | 0.26 | 0.954 | 0.648 | 0.291 | 0.249 | 0.216 | 0.535 | 0.489 | 0.321 | 0.268 | 0.27 | 0.837 | 0.864 | 0.737 | 0.404 | 0.244
18 | NCI-H1651 | 0.955 | 0.964 | 0.945 | 0.681 | 0.335 | 0.173 | 0.19 | 0.21 | 0.153 | 0.159 | 0.335 | 0.548 | 0.242 | 0.151 | 0.107 | 0.781 | 0.855 | 0.838 | 0.77 | 0.604
19 | NCI-H2087 | 0.984 | 0.767 | 0.16 | 0.177 | 0.134 | 0.649 | 0.216 | 0.168 | 0.134 | 0.129 | 0.394 | 0.232 | 0.138 | 0.125 | 0.105 | 0.206 | 0.213 | 0.184 | 0.115 | 0.124
